From patent US5840485A, “Topologically segregated, encoded solid phase libraries” (priority 1994, dated 1998)
“Also recorded” adds a separate entry of the source. Read-outs that look alike come from different tables or passages of the source.

Legend:
[1] = tested on: anti-β-endorphin antibody; assay: Antibody detection of model test compounds on non-sequentially coded beads; format: binding; settings: test compound on bead surface, coding molecule inside
From the text: The test compound sequences prepared were Tyr-Gly-Ala-Phe SEQ ID NO:12 and Phe-Gly-Ala-Phe SEQ ID NO:13, coded by doublets of amino acids (see Scheme XIC), and Tyr-Gly-Gly-Phe-Leu SEQ ID NO:14 and Phe(Cl)-Gly-Gly-Phe-Leu SEQ ID NO:15 (encoded by coding by Scheme XIB). […] Moreover, the fidelity and coding could be confirmed by directly sequencing the test peptides.
Therefore, the synthesis was not performed in successive steps of coupling test AA subunit followed by a pair of coding subunits, but rather using the more convenient scheme described below. […] The mixture of amino acids coding for phenylalanine in position four of the test compound structure (Boc-Sar and Boc-Asp(OBzl) in a molar ratio of 1:1 (reflecting their relatively equivalent coupling reactivity which had previously been determined experimentally) was coupled using DIC and HOBT (3 eq each). The reaction was monitored by bromophenol blue method. The resin was washed by DMF (5×) and the Dde group was deprotected by 2% hydrazine hydrate in DMF (10 min). The resin was washed by DMF (5×), 2% HOBT in DMF, and Fmoc-Lys(Dde) was coupled, and Fmoc group removed. The procedure of coupling mixtures of Boc amino acids and Fmoc-Lys(Dde) was repeated two times (coupling the coding subunit mixtures of Ile and Val (2:1) and Lys(ClZ) and Glu(OBzl) (1.5:1)) and after deprotection of the Dde group, Boc-Lys(Fmoc) was coupled to the resin in both syringes. […]

[2] = tested on: anti-β-endorphin antibody; assay: Binding to peptide beads (staining) with or without chymotrypsin treatment / surface synthesis
Description: (§1) Beads were carefully washed and transferred to 0.1M ammonium carbonate buffer of pH 7.7. Chymotrypsin (1 mg) was added and suspension was shaken at 37° C. for 20 hours. The same treatment was repeated twice for 4 hours.
(§2) Beads were carefully washed and prepared for staining with anti-β-endorphin as described previously.
(§3) Treated beads were tested for binding to anti-β-endorphin and streptavidin.

chymotrypsin = assay: Chymotrypsin cleavage of bead-bound substrates; format: biochemical; settings: for decrease in the total amount of peptide on bead after chymotrypsin / cleavage by chymotrypsin (substrate quality): bead-bound peptide
Description: as §1
Resin was washed and transferred to the 0.1M ammonium carbonate buffer pH 7.7. Chymotrypsin treatment was performed in the same way as described above.
A simple substrate for chymotrypsin, Boc-Phe, was synthesized on all available amino groups of the solid carrier.

[3] = tested on: anti-β-endorphin monoclonal antibody (clone 3-E 7); assay: Screening of encoded peptide library XXXX-Lys(XXXX)-Lys(ZZ) on beads; format: binding; settings: Table 3, two cycles of Edman degradation
Description: After thorough washing, streptavidin-alkaline phosphatase was added. One hour later, the beads were washed, substrate was added, and color development proceeded as described above. The color beads were then physically isolated and subjected to sequencing. In these two experiments, only the darkest beads were sequenced.

anti-β-endorphin = assay: Semi-quantitative staining of peptide-beads blocked with polyglutamic acid, biotinyl-anti-β-endorphin followed by streptavidin-AP; format: binding
Description: TentaGel amide AM resin (0.3 meq/gram substitution) was hydrated in H2 O for several hours, and washed with 0.1M 2-[N-morpholino]ethanesulfonic acid (MES) buffer, pH 5.7. A varying amount (0 to 10 mg) of polyglutamic acid (Mr 30,000, Sigma Chemical) was added to each of the 0.2 ml of settled bead. Sixty mg of 1-ethyl-3-(3-dimethylamino-propyl) carbodiimide-HCl (EDC) was then added to each tube. The reaction mixtures were rocked gently overnight. The beads were then washed into double distilled (dd) H2 O and 0.24 mmol ethanolamine plus 60 mg EDC in MES buffer were added to each sample. After 4 hours of gentle shaking, the resin was washed extensively with dd H2 O. The resin was then lyophilized to dryness. The treated resin was swollen in dimethylformamide (DMF). Using Fmoc chemistry, the peptide, […] SEQ ID NO:11 was synthesized on each of the treated resin samples using standard techniques. The N-terminal Fmoc group and the side chain protected groups were removed with piperidine and trifluoracetic acid as described (Lam et al., 1991, Nature 354: 82-84).

streptavidin [4] = molecular target: T1, streptavidin (Streptomyces avidinii, UniProt P22629); settings: for activity with streptavidin after chymotrypsin: in words
T1 sequence (P22629 25-183): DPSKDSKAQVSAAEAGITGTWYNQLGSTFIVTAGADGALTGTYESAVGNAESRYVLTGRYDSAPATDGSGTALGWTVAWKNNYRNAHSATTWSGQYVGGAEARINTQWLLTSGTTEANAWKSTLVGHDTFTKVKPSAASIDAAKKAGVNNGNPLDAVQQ
Description: as §1, §2, §3

streptavidin [5] = molecular target: T1, streptavidin; assay: Screening of encoded peptide library XXXX-Lys(XXXX)-Lys(ZZ) on beads; format: binding; settings: Table 3, two cycles of Edman degradation
Description: The peptide library was screened according to published procedures (Lam and Lebl, 1992, Immunomethods 1: 11-15). The peptide beads were first mixed with double-distilled water to remove the DMF. After extensive washing with PBS (137 mM NaCl, 2.7 mM KCl, 4.3 mM Na2 HPO4, 1.4 mM KH2 PO4, pH 7.2), the beads were coated with 0.05% gelatin (w/v) to block any nonspecific binding. The beads were then incubated with a 1:100,000 dilution of streptavidin-alkaline phosphatase at 2 mg/ml (Pierce; Rockford, Ill.) in 2× PBS/Tween/gelatin (2× PBS, 0.1% Tween-20 (v/v), and 0.05% gelatin (w/v)). The beads were then thoroughly washed with TBS (137 mM NaCl, 2.7 mM KCl, 25 mM Tris base, pH 7.4) and the standard substrate 5-bromo-4-chloro-3-indolyl phosphate was added. The beads, together with the substrate, were then transferred to petri dishes for color development. After 30 minutes to 1 hour, the colored beads were collected, with the aid of a micropipette, washed with 6M guanidine hydrochloride, pH 1.0, and subjected to sequencing as described.
This library was used in the screening against two model targets, anti-β-endorphin monoclonal antibody, and streptavidin. […]

[6] = two-peptide beads, surface deprotected by chymotrypsin

Compound: Tyr-Gly-Ala-Phe (YGAF)
- detection by anti-β-endorphin antibody [1]: positive
- detection by anti-β-endorphin antibody ([1]; listed as Tyr-Gly-Ala-Phe): can be detected

Compound: YGGFL
- binding activity to anti-β-endorphin antibody after chymotrypsin ([2]; after chymotrypsin, in words): completely lost binding activity
- staining / reaction with anti-β-endorphin of beads with YGGFL on surface and second peptide inside [2, 6]: indistinguishable from staining of the beads containing only YGGFL sequence; also recorded: positive reaction; also recorded: available on the surface of the bead for the interaction with the relevant acceptor
- decrease in the total amount of peptide on bead after chymotrypsin (chymotrypsin): minimal

Compound: CC(C)(C)OC(=O)N[C@@H](Cc1ccccc1)C(=O)O [Boc-Phe]
- release of Boc-Phe by chymotrypsin (chymotrypsin; Boc-Phe on all available amino groups of carrier, various conditions): ~1.1%

Compound: LHFQF: LHFQF SEQ ID NO:10 was a poor substrate for chymotrypsin
- cleavage by chymotrypsin (substrate quality) (chymotrypsin): poor substrate

Compound: YGPF: test peptide sequence deduced from positive beads of the encoded library
- Target of positive bead, deduced sequence [3]: anti-β-endorphin

Compound: YGGFLGGG [peptide synthesized on polyglutamic acid treated resin]
- staining of polyglutamic acid-blocked resin (anti-β-endorphin; blocked resin, in words): stained only weakly
- Labeling with biotinyl-anti-β-endorphin followed by streptavidin-AP (anti-β-endorphin; polyglutamic acid 10 mg per 0.2 ml resin): trace

Compound: LHPQFYG
- cleavage by chymotrypsin (substrate quality) (chymotrypsin): proceeded efficiently
- decrease in the total amount of peptide on bead after chymotrypsin (chymotrypsin): minimal
- activity with streptavidin after chymotrypsin (streptavidin [4]): completely abrogated
- activity with streptavidin after chymotrypsin (streptavidin [4]; listed as LHPQF-YG): completely lost activity

Compound: Phe-Gly-Ala-Phe (FGAF)
- detection by anti-β-endorphin antibody [1]: negative control

Compound: YGGF: test peptide sequence deduced from positive beads of the encoded library
- Target of positive bead, deduced sequence [3]: anti-β-endorphin

Compound: LHPQF
- reaction with streptavidin of beads with YGGFL on surface and LHPQF inside (streptavidin [4]; [6]): positive reaction; also recorded: still available for interaction with streptavidin

Compound: HPQF: test peptide sequence deduced from positive beads of the encoded library
- Target of positive bead, deduced sequence (streptavidin [5]): streptavidin positive
